In test [1] the target is T1, SCAP (Cricetulus griseus, UniProt P97260).
T1 construct: endogenous in cells; host or cells: CHO-K1 (membrane fraction extracted with 0.1% FOS-Choline 10)
T1 sequence (P97260 1-1276): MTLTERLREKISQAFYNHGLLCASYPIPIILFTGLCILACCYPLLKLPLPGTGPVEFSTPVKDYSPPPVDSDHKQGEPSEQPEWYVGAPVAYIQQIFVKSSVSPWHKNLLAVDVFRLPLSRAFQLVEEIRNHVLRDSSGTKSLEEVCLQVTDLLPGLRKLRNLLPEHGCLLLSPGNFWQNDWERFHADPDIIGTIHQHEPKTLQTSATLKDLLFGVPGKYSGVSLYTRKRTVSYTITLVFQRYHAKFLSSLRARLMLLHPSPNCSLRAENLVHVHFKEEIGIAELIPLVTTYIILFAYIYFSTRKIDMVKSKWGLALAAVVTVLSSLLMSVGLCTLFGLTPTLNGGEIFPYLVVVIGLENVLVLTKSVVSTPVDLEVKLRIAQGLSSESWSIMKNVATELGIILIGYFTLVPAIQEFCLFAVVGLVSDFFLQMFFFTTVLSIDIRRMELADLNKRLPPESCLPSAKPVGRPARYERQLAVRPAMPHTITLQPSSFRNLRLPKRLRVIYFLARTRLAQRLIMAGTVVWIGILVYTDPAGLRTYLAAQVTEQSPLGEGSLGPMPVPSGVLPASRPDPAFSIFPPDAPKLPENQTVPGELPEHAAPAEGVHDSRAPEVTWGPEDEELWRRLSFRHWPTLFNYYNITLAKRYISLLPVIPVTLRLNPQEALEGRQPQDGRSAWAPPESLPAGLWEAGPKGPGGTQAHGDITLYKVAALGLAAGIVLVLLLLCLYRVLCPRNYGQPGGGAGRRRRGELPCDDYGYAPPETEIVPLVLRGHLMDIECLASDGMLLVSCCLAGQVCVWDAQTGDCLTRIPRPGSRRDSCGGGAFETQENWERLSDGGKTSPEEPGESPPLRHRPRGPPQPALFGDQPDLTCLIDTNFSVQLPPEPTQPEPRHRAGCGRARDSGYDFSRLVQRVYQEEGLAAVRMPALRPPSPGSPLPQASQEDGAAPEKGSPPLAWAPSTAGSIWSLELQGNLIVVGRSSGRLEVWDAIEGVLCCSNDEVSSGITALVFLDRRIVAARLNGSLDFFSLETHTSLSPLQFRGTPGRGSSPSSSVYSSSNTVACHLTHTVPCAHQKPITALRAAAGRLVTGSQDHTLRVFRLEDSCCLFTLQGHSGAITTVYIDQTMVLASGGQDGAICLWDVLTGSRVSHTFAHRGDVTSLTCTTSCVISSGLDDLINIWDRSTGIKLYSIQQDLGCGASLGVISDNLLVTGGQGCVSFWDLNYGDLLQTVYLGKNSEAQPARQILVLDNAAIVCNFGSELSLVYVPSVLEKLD
As to the kind of experiment: Binding assay, biotinylated fatostatin on Neutravidine-agarose beads, CHO-K1 membrane extract. More on the design: species or system Chinese hamster. The conditions noted are these: not bound: SREBP-1, SREBP-2, ATF6. The text has this: The selective ER localization implies that fatostatin binds to a protein in the ER; the most likely candidate is SCAP, the target of cholesterol for the control of SREBP (Radhakrishnan et al., 2004). To test this hypothesis, proteins bound to a fatostatin-polyproline linker-biotin conjugate (FIG. 20A) (Sato et al., 2007) were purified from cell lysates and analyzed by western blots with antibodies against SCAP, SREBP-1, SREBP-2, and ATF6, an unrelated ER-bound transcription factor (Ye et al., 2000). […] The binding was lost upon addition of excess fatostatin, but not excess cholesterol (FIG. 20D), raising the possibility that fatostatin may interact with SCAP in a site distinct from that of cholesterol.
Binding assay. Cell membrane fractions were prepared as described in Supplementary Methods. The membrane fraction was extracted with PBS containing 0.1% FOS-Choline 10 (Hampton Research). The extract was mixed with Neutravidine-agarose beads (10 μL) saturated with biotinylated fatostatin and incubated for 1 h. The bound proteins were washed four times with PBS containing 0.1% FOS-Choline 10, boiled in 25 μL of SDS sample buffer, and subjected to western blotting. For the competition assay, saturated amounts of cholesterol or fatostatin were added to the membrane extract before incubating with the beads.

Test [2] has as its system SREBP-2. As to the kind of experiment: Western blot analysis of SREBP processing in CHO-K1 cells. The test is classed as cell-based, Chinese hamster. From the text: To determine if fatostatin affects the ER-Golgi translocation and proteolytic processing of SREBPs, a reporter assay developed by Sakai et al. (1998) was used. PLAP-BP2 in transfected CHO-K1 cells remains membrane-bound unless it is cleaved by S1P in the Golgi and secreted into the culture medium. In the assay, a secreted alkaline phosphatase, fused with an SREBP-2 fragment lacking the NH2-terminal DNA-binding domain (PLAP-BP2513-1141), permits monitoring of translocation and processing through changes in the fluorescence of a fluorogenic phosphatase substrate (FIG. 18C). When cells were co-transfected with plasmids encoding PLAP-BP2513-1141 and SCAP, PLAP phosphatase was secreted, generating fluorescence signals. […] The fatostatin-mediated inhibition of SREBP activation was confirmed by western blot analysis of SREBPs. […] Similar results were obtained for SREBP-1 (FIG. 22).
Western blot analysis of SREBP processing. […] The protein concentration of each total cell extract was measured (BCA kit; Pierce), after which a 22-33 μg aliquot of cell extract was mixed with 0.25 volume of buffer (250 mM Tris-HCl, pH 6.8, 10% SDS, 25% glycerol, 0.2% (w/v) bromophenol blue, and 5% (v/v) 2-mercaptoethanol), heated for 7 min at 95° C. […]

The test system of test [3] is HePG2 cells. As to the kind of experiment: HePG2 cell growth, SREBP-1 western blot. Format: cell-based, human. How it is done: Cells were seeded onto 16 well plates at a density of 100000 cells/well in medium containing 2% charcoal stripped serum. After 24 hours, compound 19 was added to the cells at the indicated concentrations for another 48 hours. […] Values are depicted as means±SD; *P<0.05.
(Immunoblotting shows a protein as a band on a membrane.)

`CCCc1cc(-c2nc(-c3ccc(C)cc3)cs2)ccn1` [Compound 1, 2-propyl-4-(4-p-tolylthiazol-2-yl)pyridine]: in test [1], the “binding to SCAP (western blot of bound proteins)” value is listed as “bound to SCAP”. In test [2], the “amounts of mature and precursor forms of SREBP-2 (western blot)” value is on record as “decreased the amount of the 68 KDa mature form of SREBP-2”.

Regarding `CCCc1cc(-c2nc(-c3ccc(NS(C)(=O)=O)cc3)cs2)ccn1` [Compound 19, N-(4-(2-(2-propylpyridin-4-yl)thiazol-4-yl)phenyl)methanesulfonamide], the “level of mature and precursor forms of SREBP-1 (western blot)” value in test [3] (25 μM, HePG2 cells) is “significant decrease in the level of the mature and active form”. Further, the “toxicity, morphology and growth of treated cells” value in test [3] (25, 50 and 100 μM, 48 hours) is on record as “high level of toxicity”.
